Data on 1 molecule can be found in paper PMC6115456, “PI3Ka-Akt1-mediated Prdm4 induction in adipose tissue increases energy expenditure, inhibits weight gain, and improves insulin resistance in diet-induced obese mice” (Cell Death & Disease, 2018).

This assay concerns the target T1, PI3Kα (class I catalytic subunit p110α) (Homo sapiens, UniProt P42336).
T1 construct: gene PIK3CA
Kind of assay: PI3K ADP-Glo kinase assay (Promega) on purified PI3Kα; also […] inhibition at […] in a recombinant kinase panel. In kind it is biochemical.

T1 sequence (P42336 whole entry): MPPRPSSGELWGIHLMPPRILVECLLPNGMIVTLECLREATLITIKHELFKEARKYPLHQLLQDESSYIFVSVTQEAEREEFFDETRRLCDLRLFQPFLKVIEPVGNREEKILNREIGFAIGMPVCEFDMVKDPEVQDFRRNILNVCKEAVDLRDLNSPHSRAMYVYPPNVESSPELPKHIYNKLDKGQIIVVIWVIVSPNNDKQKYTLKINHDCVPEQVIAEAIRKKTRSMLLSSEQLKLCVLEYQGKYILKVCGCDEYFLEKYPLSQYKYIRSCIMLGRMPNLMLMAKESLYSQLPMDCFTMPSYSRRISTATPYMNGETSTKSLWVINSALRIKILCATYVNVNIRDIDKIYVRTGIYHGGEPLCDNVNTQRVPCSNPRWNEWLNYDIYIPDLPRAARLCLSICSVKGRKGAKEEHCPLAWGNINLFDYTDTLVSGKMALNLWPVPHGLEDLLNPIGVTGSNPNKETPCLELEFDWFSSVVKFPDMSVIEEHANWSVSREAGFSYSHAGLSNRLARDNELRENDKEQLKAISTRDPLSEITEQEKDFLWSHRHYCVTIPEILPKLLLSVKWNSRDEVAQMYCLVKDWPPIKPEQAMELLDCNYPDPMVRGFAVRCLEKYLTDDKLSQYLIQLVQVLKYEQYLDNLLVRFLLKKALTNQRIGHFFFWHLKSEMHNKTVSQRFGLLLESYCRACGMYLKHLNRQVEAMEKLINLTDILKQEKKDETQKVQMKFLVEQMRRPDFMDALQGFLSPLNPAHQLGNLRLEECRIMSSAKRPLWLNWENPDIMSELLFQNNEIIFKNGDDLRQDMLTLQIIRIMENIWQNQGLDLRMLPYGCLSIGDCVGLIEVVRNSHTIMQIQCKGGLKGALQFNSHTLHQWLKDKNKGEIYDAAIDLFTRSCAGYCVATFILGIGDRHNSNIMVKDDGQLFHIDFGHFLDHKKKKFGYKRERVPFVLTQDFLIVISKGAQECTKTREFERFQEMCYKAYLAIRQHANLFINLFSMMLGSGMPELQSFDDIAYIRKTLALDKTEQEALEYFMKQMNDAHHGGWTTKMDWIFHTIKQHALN
T1 sequence (P27986 2-724 partner): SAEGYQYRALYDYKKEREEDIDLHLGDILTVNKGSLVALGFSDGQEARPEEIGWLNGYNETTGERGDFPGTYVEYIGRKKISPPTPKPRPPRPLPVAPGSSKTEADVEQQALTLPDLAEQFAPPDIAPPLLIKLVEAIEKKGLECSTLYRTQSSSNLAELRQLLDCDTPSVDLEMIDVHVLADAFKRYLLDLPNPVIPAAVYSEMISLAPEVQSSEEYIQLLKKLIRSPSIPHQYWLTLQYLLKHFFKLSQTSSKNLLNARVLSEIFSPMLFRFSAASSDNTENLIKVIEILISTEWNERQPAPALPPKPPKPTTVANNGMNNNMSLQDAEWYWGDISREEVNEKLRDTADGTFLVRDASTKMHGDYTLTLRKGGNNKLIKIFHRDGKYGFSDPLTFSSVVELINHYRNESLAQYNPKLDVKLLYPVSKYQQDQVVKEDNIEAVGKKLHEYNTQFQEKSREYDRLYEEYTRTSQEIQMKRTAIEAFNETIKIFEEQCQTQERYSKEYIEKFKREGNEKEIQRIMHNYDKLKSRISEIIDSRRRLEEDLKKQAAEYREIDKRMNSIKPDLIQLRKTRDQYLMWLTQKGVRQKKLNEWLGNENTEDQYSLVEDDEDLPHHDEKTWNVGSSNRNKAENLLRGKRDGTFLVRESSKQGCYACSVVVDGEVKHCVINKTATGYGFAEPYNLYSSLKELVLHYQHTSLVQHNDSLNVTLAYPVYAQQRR

With `O=C(/C=C/c1ccc(O)c(O)c1)c1ccc(O)cc1O` [butein], the IC50 was 6.4 µM.
